Assay results as given in US8729047B2, “Compositions for inhibiting redox-sensitive GTPases” (Board of Regents, The University of Texas System, priority 2010, dated 2014).

Key:
HME-C20S RhoC cells = assay: Matrigel invasion (cell motility) assay; format: cell-based, human; conditions: FIG. 14A
From the text: (§1) FIG. 14. Determination of cell invasiveness in the presence and absence of thiopurines and/or redox agents. […] Western blot analysis representing the total expression of RhoC in these cells also is shown. (B) Experimental procedures for the determination of the time-dependent motility of cells using the QCM Cell Invasion Assay kit in the presence and absence of 6-TG and DETA/NO are described elsewhere herein.
(§2) The top chamber of a Transwell filter (6.5 mm with 8 μm pores, Costar; Corning, N.Y.) was coated with a 10 μL aliquot of 10 mg/mL Matrigel, and the lower chamber of the Transwell was filled with either serum-free or serum-containing media. Sample cells were prepared to resuspend cells in a serum-free medium with 0.1% BSA at a concentration of 4×10^5 cells/mL. […] The Transwell filters were fixed with methanol, stained with haematoxylin and eosin, and cells in the serum-containing samples were counted. The number of cells that had invaded the serum-free, medium-containing lower chambers was used as a control background.

SUM149 cells = assay: Matrigel invasion (cell motility) assay; format: cell-based, human; conditions: FIG. 14A
From the text: as §1, §2

HCCLM3 cells = assay: QCM Cell Invasion Assay, time-dependent motility; format: cell-based, human; conditions: 6-TG in combination with a NO donor for 3 days; FIG. 14B
Procedure: (§3) FIG. 14. Determination of cell invasiveness in the presence and absence of thiopurines and/or redox agents.
(§4) The Colorimetric-based QCM Cell Invasion Assay kit (Millipore, Billerica, Mass.) was used for the time-dependent cell migration assay of SUM149, SW480, and HCCLM3 cells. Serum-free sample cells (2×10^5 cells/mL) were prepared as indicated in the section of the matrigel invasion assay. The serum-free sample cells (0.25 mL) were loaded to the rehydrated upper chamber. […] Serum-free or serum-containing media (0.5 mL) was added to the lower chamber. The plate covered was then incubated for one to four days at 37° C. in a 10% CO2 incubator. […] The fraction of cells migrated from the upper chamber to the lower chamber was then measured colorimetrically according to the procedure provided by the manufacture.

SW480 cells = assay: QCM Cell Invasion Assay, time-dependent motility; format: cell-based, human; conditions: 6-TG in combination with a NO donor for 3 days; FIG. 14B
Procedure: as §3, §4

RhoC = RhoC (Homo sapiens, UniProt P08134); assay: Co-IP mass spectrometry of thioguanine nucleotide disulfide adduct; format: cell-based; set-up: endogenous in cells; host or cells: SUM149, SUM102, SW480, HCCLM3 (endogenous); HME-RhoC (transfected with wild type RhoC)
Procedure: FIG. 6. Detection of unusual 6-TGNP adduct from HME-RhoC cells. […] A monoclonal RhoC antibody (Biocompare, South San Francisco, Calif.) and a “Mammalian Co-Immunoprecipitation Kit” (Pierce) were used for the analyses of the RhoC 6-TGNP interaction in HME-RhoC cells. The immunoprecipitated RhoC sample was suspended in 50% methanol:0.1% formic acid. The protein portion and RhoC-released nucleotide were separated by a brief centrifugation (3000×g for 5 min). The protein portion from the immunoprecipitated RhoC was resuspended in the assay buffer (pH 7.5), digested with trypsin for 10 h, and analyzed with MALDI-TOF tandem mass spectrometry. The MALDI-TOF peak at 1476.6 Da represents peptide-6-TGDP adduct; TC^20LLIVFSK-6-TGDP (SEQ ID NO:4).
FIG. 15. Detection of unusual 6-TGNP adduct from SUM and HME-RhoC cells. The ESI-MS and MS/MS methods to detect and identify a chemically modified RhoC residue are described elsewhere herein. […] The left and right columns, respectively, denote any of the RhoC samples taken from SUM and HME cells. As indicated, a mixture of samples taken from untreated SUM149 and SUM102 cells was used as a control for the experiment shown in the left column. For the right column, a mixture of samples taken from HME-RhoC and […] cells was used as a control. (B) A MS/MS analysis was performed with the ESI-MS sample of 6-TG-treated SUM149 cells to identify a biomolecule that have a mass of 1481.6 Da. […]
Cell lysates in an extraction buffer were incubated with a monoclonal anti-RhoC antibody precoupled to glutathione-agarose beads. […] The protein portion from the immunoprecipitated RhoC was resuspended in a buffer containing 1 mM EDTA and 0.1 mM DTPA in 50 mM TrisHCl (pH 7.4), then digested with trypsin for 10 h, and analyzed with electrospray mass spectrometry (ESI-MS) and tandem mass spectrometry (MS/MS) in the positive ion mode ([molecular mass+H]^+).

RhoC, sequence (P08134 whole entry): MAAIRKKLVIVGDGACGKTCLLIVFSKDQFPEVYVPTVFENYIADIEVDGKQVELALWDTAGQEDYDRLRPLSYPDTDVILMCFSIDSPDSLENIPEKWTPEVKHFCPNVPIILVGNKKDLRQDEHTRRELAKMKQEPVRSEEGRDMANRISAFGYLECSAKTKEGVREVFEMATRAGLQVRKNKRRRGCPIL

Nc1nc2nc[nH]c2c(=S)[nH]1 [6-TG, 6-thioguanine]
effect on motility compared with SUM149 and HME-RhoC cells (HME-C20S RhoC cells; 6-TG alone, three days): insignificant
effect on C20S RhoC activity and invasive cell motility (HME-C20S RhoC cells; 6-TG with a NO donor, compared with either alone): lack of a significant effect
cell motility (SUM149 cells; 6-TG 1 μM alone, three or more consecutive days): gradual but significant diminution of cell motility
invasive cell motility (SUM149 cells; 6-TG 1 μM with DETA/NO (or GSNO) 10 μM, three days): complete termination of the invasive cell motility
most of the invasive motility (HCCLM3 cells): terminated
most of the invasive motility (SW480 cells): terminated
peak assigned to RhoC-6-TGDP adduct (RhoC; 6-TG in the presence of a NO donor): increased
peptide-6-TGDP adduct (TC20LLIVFSK-6-TGDP) by MALDI-TOF (RhoC; HME-RhoC cells, 6-TG 1 μM every 48 h, 5 days, FIG. 6): detected
RhoC-derived peptide-6-TGDP disulfide adduct mass peak by ESI-MS (RhoC; co-IPed RhoC from SUM149 and HME-RhoC cells treated with 6-TG, FIG. 15A): commonly exhibited
